In patent US11006631B2, “Substituted pyrimidinyloxy pyridine derivatives as herbicides” (FMC Corporation, priority 2015, dated 2021):

Columns and labels:
Assay type in all cases: in vivo
[1] = tested on: barnyardgrass (Echinochloa crus-galli); experiment: Test A postemergence, barnyardgrass; conditions: 0 to 100 scale
Text: (§1) Seeds of plant species selected from bamyardgrass (Echinochloa crus-galli), kochia (Kochia scoparia), ragweed (common ragweed, Ambrosia elatior), ryegrass, Italian (Italian ryegrass, Lolium multiflorum), foxtail, giant (giant foxtail, Setaria faberii), pigweed (Amaranthus retroflexus), crabgrass, large (large crabgrass, Digitaria sanguinalis), momingglory (Ipomoea spp.), velvetleaf (Abutilon theophrasti), wheat (Triticum aestivum), and corn (Zea mays) were planted into a blend of loam soil and sand and treated preemergence with a directed soil spray using test chemicals formulated in a non-phytotoxic solvent mixture which included a surfactant. At the same time, plants selected from these crop and weed species and also blackgrass (Alopecurus myosuroides), and galium (catchweed bedstraw, Galium aparine) were planted in pots containing the same blend of loam soil and sand and treated with postemergence applications of test chemicals formulated in the same manner. Plants ranged in height from 2 to 10 cm and were in the one- to two-leaf stage for the postemergence treatment. Treated plants and untreated controls were maintained in a greenhouse for approximately 10 days, after which time all treated plants were compared to untreated controls and visually evaluated for injury. Plant response ratings, summarized in Table A, are based on a 0 to 100 scale where 0 is no effect and 100 is complete control. A dash (-) response means no test result.

[2] = tested on: sedge, umbrella (small-flower umbrella sedge, Cyperus difformis); experiment: Test B flooded paddy test, sedge, umbrella; conditions: Flood, 250 g ai/ha; scale of 0 to 100
Experimental: (§2) Plant species in the flooded paddy test selected from rice (Oryza sativa), sedge, umbrella (small-flower umbrella sedge, Cyperus difformis), ducksalad (Heteranthera limosa), and barnyardgrass (Echinochloa crus-galli) were grown to the 2-leaf stage for testing. At time of treatment, test pots were flooded to 3 cm above the soil surface, treated by application of test compounds directly to the paddy water, and then maintained at that water depth for the duration of the test. Treated plants and controls were maintained in a greenhouse for 13 to 15 days, after which time all species were compared to controls and visually evaluated. Plant response ratings, summarized in Table B, are based on a scale of 0 to 100 where 0 is no effect and 100 is complete control. A dash (-) response means no test result.

corn (Zea mays) = experiment: Test A postemergence, corn; conditions: 0 to 100 scale
Text: as §1

[3] = tested on: pigweed (Amaranthus retroflexus); experiment: Test A postemergence, pigweed; conditions: 0 to 100 scale
Text: as §1

[4] = tested on: ducksalad (Heteranthera limosa); experiment: Test B flooded paddy test, ducksalad; conditions: Flood, 250 g ai/ha; scale of 0 to 100
Experimental: as §2

[5] = tested on: barnyardgrass (Echinochloa crus-galli); experiment: Test A preemergence, barnyardgrass; conditions: 0 to 100 scale
Text: as §1

kochia (Kochia scoparia) [6] = experiment: Test A postemergence, kochia; conditions: 0 to 100 scale
Text: as §1

[7] = tested on: blackgrass (Alopecurus myosuroides); experiment: Test A postemergence, blackgrass; conditions: 0 to 100 scale
Text: as §1

[8] = tested on: ryegrass, Italian (Italian ryegrass, Lolium multiflorum); experiment: Test A postemergence, ryegrass, Italian; conditions: 0 to 100 scale
Text: as §1

rice (Oryza sativa) = experiment: Test B flooded paddy test, rice; conditions: Flood, 250 g ai/ha; scale of 0 to 100
Experimental: as §2

[9] = tested on: ragweed (common ragweed, Ambrosia elatior); experiment: Test A preemergence, ragweed; conditions: 0 to 100 scale
Text: as §1

[10] = tested on: wheat (Triticum aestivum); experiment: Test A postemergence, wheat; conditions: 0 to 100 scale
Text: as §1

[11] = tested on: foxtail, giant (giant foxtail, Setaria faberii); experiment: Test A postemergence, foxtail, giant; conditions: 0 to 100 scale
Text: as §1

[12] = tested on: ragweed (common ragweed, Ambrosia elatior); experiment: Test A postemergence, ragweed; conditions: 0 to 100 scale
Text: as §1

kochia (Kochia scoparia) [13] = experiment: Test A preemergence, kochia; conditions: 0 to 100 scale
Text: as §1

[14] = tested on: ryegrass, Italian (Italian ryegrass, Lolium multiflorum); experiment: Test A preemergence, ryegrass, Italian; conditions: 0 to 100 scale
Text: as §1

[15] = tested on: galium (catchweed bedstraw, Galium aparine); experiment: Test A postemergence, galium; conditions: 0 to 100 scale
Text: as §1

[16] = tested on: foxtail, giant (giant foxtail, Setaria faberii); experiment: Test A preemergence, foxtail, giant; conditions: 0 to 100 scale
Text: as §1

[17] = tested on: pigweed (Amaranthus retroflexus); experiment: Test A preemergence, pigweed; conditions: 0 to 100 scale
Text: as §1

[18] = tested on: barnyardgrass (Echinochloa crus-galli); experiment: Test B flooded paddy test, barnyardgrass; conditions: Flood, 250 g ai/ha; scale of 0 to 100
Experimental: as §2

| SMILES | Plant response rating, Barnyardgrass ([1]; 125 g ai/ha) | Plant response rating, Sedge, Umbrella [2] | Plant response rating, Corn (corn (Zea mays); 125 g ai/ha) | Plant response rating, Pigweed ([3]; 125 g ai/ha) | Plant response rating, Ducksalad [4] | Plant response rating, Barnyardgrass ([5]; 125 g ai/ha) | Plant response rating, Kochia (kochia (Kochia scoparia) [6]; 125 g ai/ha) | Plant response rating, Blackgrass ([7]; 125 g ai/ha) | Plant response rating, Ryegrass, Italian ([8]; 125 g ai/ha) | Plant response rating, Rice (rice (Oryza sativa)) | Plant response rating, Ragweed ([9]; 125 g ai/ha) | Plant response rating, Wheat ([10]; 125 g ai/ha) | Plant response rating, Foxtail, Giant ([11]; 125 g ai/ha) | Plant response rating, Ragweed ([12]; 125 g ai/ha) | Plant response rating, Kochia (kochia (Kochia scoparia) [13]; 125 g ai/ha) | Plant response rating, Ryegrass, Italian ([14]; 125 g ai/ha) | Plant response rating, Galium ([15]; 125 g ai/ha) | Plant response rating, Foxtail, Giant ([16]; 125 g ai/ha) | Plant response rating, Pigweed ([17]; 125 g ai/ha) | Plant response rating, Barnyardgrass [18] | also measured |
| --- | --- | --- | --- | --- | --- | --- | --- | --- | --- | --- | --- | --- | --- | --- | --- | --- | --- | --- | --- | --- | --- |
| Cc1cnc(-n2ccc(C(F)(F)F)n2)c(Oc2ncc(Cl)cn2)c1 [Compound 13] | 0 | 0 | 0 | 0 | 0 | 0 | 0 | 0 | 0 | 0 | 0 | 0 | 0 | 0 | 0 | 0 | 0 | 0 | 0 | 0 | Plant response rating, Barnyardgrass ([1]; 31 g ai/ha): 0; Plant response rating, Corn (corn (Zea mays); 31 g ai/ha): 0; Plant response rating, Pigweed ([3]; 31 g ai/ha): 0; Plant response rating, Barnyardgrass ([5]; 31 g ai/ha): 0; Plant response rating, Kochia (kochia (Kochia scoparia) [6]; 31 g ai/ha): 0; Plant response rating, Blackgrass ([7]; 31 g ai/ha): 0; Plant response rating, Ryegrass, Italian ([8]; 31 g ai/ha): 0; Plant response rating, Ragweed ([9]; 31 g ai/ha): 0; Plant response rating, Wheat ([10]; 31 g ai/ha): 0; Plant response rating, Foxtail, Giant ([11]; 31 g ai/ha): 0; Plant response rating, Ragweed ([12]; 31 g ai/ha): 0; Plant response rating, Kochia (kochia (Kochia scoparia) [13]; 31 g ai/ha): 0; Plant response rating, Ryegrass, Italian ([14]; 31 g ai/ha): 0; Plant response rating, Galium ([15]; 31 g ai/ha): 0; Plant response rating, Foxtail, Giant ([16]; 31 g ai/ha): 0; Plant response rating, Pigweed ([17]; 31 g ai/ha): 0 |
| FC(F)(F)c1cc(-c2ncccc2Oc2ncc(Cl)cn2)ccn1 [Compound 14] | 40 | 50 | 20 | 100 | 40 | 40 | 80 | 10 | 30 | 0 | 0 | 0 | 60 | 10 | 100 | 10 | 50 | 90 | 100 | 0 | Plant response rating, Barnyardgrass ([1]; 500 g ai/ha): 60; Plant response rating, Corn (corn (Zea mays); 500 g ai/ha): 40; Plant response rating, Pigweed ([3]; 500 g ai/ha): 100; Plant response rating, Barnyardgrass ([5]; 500 g ai/ha): 100; Plant response rating, Kochia (kochia (Kochia scoparia) [6]; 500 g ai/ha): 100; Plant response rating, Blackgrass ([7]; 500 g ai/ha): 90; Plant response rating, Ryegrass, Italian ([8]; 500 g ai/ha): 40; Plant response rating, Ragweed ([9]; 500 g ai/ha): 20; Plant response rating, Wheat ([10]; 500 g ai/ha): 10; Plant response rating, Foxtail, Giant ([11]; 500 g ai/ha): 90; Plant response rating, Ragweed ([12]; 500 g ai/ha): 30; Plant response rating, Kochia (kochia (Kochia scoparia) [13]; 500 g ai/ha): 100; Plant response rating, Ryegrass, Italian ([14]; 500 g ai/ha): 20; Plant response rating, Galium ([15]; 500 g ai/ha): 90; Plant response rating, Foxtail, Giant ([16]; 500 g ai/ha): 100; Plant response rating, Pigweed ([17]; 500 g ai/ha): 100 |
